The values below come from US3974140A, “Ureidoacetamido-penicillins” (Bayer Aktiengesellschaft, priority 1970, dated 1976).

Holding throughout (test): MIC, liquid medium test tube series dilution test
One assay has as its system Psdm. aerug. Bonn. Type of assay: cell-based, Pseudomonas aerug. Conditions: 24 hours, 37°C. The protocol:
(§1) The chemotherapeutic activity of the new penicillins was tested in vivo and in vitro. The in vitro inhibition values (MIC = minimum inhibition concentration (see Tables 1 and 2) were determined in a liquid medium in the test tube series dilution test, with readings being taken after 24 hours' incubation at 37°C. The MIC is indicated by the non-turbid test tube in the dilution series. A complete medium of the following composition was used as the nutrient medium:
(§2) The figures quoted in the Examples for the effectiveness against certain bacteria (units/ml) are minimum inhibitory concentrations in the test tube series dilution test after 24 hours' incubation.

For another assay, the system named is Psdm. aerug. Walter. Type of assay: cell-based, Pseudomonas aerug. Conditions: 24 hours, 37°C. The protocol: as §1, §2
The subject of another assay is Staph. aureus 133. Type of assay: cell-based, Staphylococcus aureus. Conditions: Staph. aureus 133, 24 hours, 37°C. The protocol: as §1, §2
In assay [1] the test system is Streptoc. faec. ATCC 9790. Type of assay: cell-based. As to conditions: Strep. faec. (Enterococcus) ATCC 9790, 24 hours, 37°C. The protocol:
as §1, §2

The next assay relates to Klebsiella K 10. Type of assay: cell-based. Conditions: Klebsiella K 10, 24 hours, 37°C. As to the method: as §1, §2
Another assay concerns Klebsiella 63. Type of assay: cell-based. Conditions: Klebsiella 63, 24 hours, 37°C. As to the method:
as §1, §2

The next assay relates to E. coli A 261. Type of assay: cell-based. Conditions: E. coli A 261, 24 hours, 37°C. As to the method:
as §1, §2

Another assay concerns E. coli 183/58. Type of assay: cell-based. As to conditions: E. coli 183/58, 24 hours, 37°C. As to the method: as §1, §2
Another assay has as its system E. coli 14. Type of assay: cell-based. Conditions: E. coli 14, 24 hours, 37°C. The protocol:
as §1, §2

The next assay concerns E. coli C 165. Type of assay: cell-based. Conditions: E. coli C 165, 24 hours, 37°C. As to the method:
as §1, §2

Another assay has as its system Proteus vulg. 3400. Type of assay: cell-based, Proteus vulgaris. Conditions: Proteus vulg. 3400, 24 hours, 37°C. As to the method:
as §1, §2

The subject of another assay is Proteus vulg. 1017. Type of assay: cell-based, Proteus vulgaris. As to conditions: Proteus vulg. 1017, 24 hours, 37°C. As to the method:
as §1, §2

In the case of `CN(C(=O)CCCCl)C(=O)N[C@@H](C(=O)N[C@@H]1C(=O)N2[C@@H]1SC(C)(C)[C@@H]2C(=O)O)c1ccccc1` [Example 2, Sodium D(-)-α-(3-γ-chlorobutyryl-3-methyl-ureido)-benzylpenicillin], the MIC in the assay on Psdm. aerug. Bonn is given as 100 units/ml; in the assay on Psdm. aerug. Walter, 100 units/ml; in the assay with Staph. aureus 133, ~ 0.8 units/ml; in [1], 200 units/ml; against Klebsiella K 10, 50 units/ml; against Klebsiella 63, 50 units/ml. Further, the MIC in the assay with E. coli A 261 was found to be 400 units/ml; against E. coli 183/58 it was 12.5 units/ml; against E. coli 14, 3.1 units/ml; in the assay on E. coli C 165, 12.5 units/ml; with Proteus vulg. 3400, 25 units/ml; in the assay on Proteus vulg. 1017, 100 units/ml.

For the compound `COC(=O)N(C)C(=O)NC(C(=O)N[C@@H]1C(=O)N2[C@@H]1SC(C)(C)[C@@H]2C(=O)O)c1c(Cl)cccc1Cl` (stereo partly drawn) [Example 9, Sodium D,L-α-(3-methoxycarbonyl-3-methyl-ureido)-2,6-dichlorobenzylpenicillin], the MIC against Psdm. aerug. Bonn is over 500 units/ml; in the assay on Psdm. aerug. Walter, over 500 units/ml; in the assay on Staph. aureus 133, 0.8-4 units/ml; in assay [1] it was ~ 500 units/ml; against Klebsiella K 10 it was over 500 units/ml; with Klebsiella 63 it was over 500 units/ml. The MIC against E. coli A 261 is reported as over 500 units/ml; against E. coli 183/58 it was 100-500 units/ml; in the assay with E. coli 14 it was 20-100 units/ml; against E. coli C 165, 100-500 units/ml; in the assay on Proteus vulg. 3400, over 500 units/ml; against Proteus vulg. 1017, over 500 units/ml.

Consider `C=CCN(C(=O)NC(C(=O)N[C@@H]1C(=O)N2[C@@H]1SC(C)(C)[C@@H]2C(=O)O)c1ccc(OC)cc1)C(=O)c1ccccc1` (stereo partly drawn) [Example 14, Sodium D,L-α-(3-benzoyl-3-allyl-ureido)-4-methoxybenzylpenicillin], for which the MIC is listed as 100-500 units/ml in the assay on Psdm. aerug. Bonn; 100-500 units/ml with Psdm. aerug. Walter; 0.8-4 units/ml in the assay with Staph. aureus 133; 100-500 units/ml in [1]; 20-100 units/ml with Klebsiella K 10; 20-100 units/ml in the assay on Klebsiella 63. Further, the MIC is recorded as over 500 units/ml against E. coli A 261; 20-100 units/ml in the assay on E. coli 183/58; 4-20 units/ml in the assay on E. coli 14; 20-100 units/ml against E. coli C 165; ~ 100 units/ml against Proteus vulg. 3400; 100-500 units/ml against Proteus vulg. 1017.

As for `C=CCN(C(=O)NC(C(=O)N[C@@H]1C(=O)N2[C@@H]1SC(C)(C)[C@@H]2C(=O)O)c1c(Cl)cccc1Cl)C(=O)c1ccccc1` (stereo partly drawn) [Example 15, Sodium D,L-α-(3-benzoyl-3-allyl-ureido)-2,6-dichlorobenzylpenicillin], the MIC was over 500 units/ml with Psdm. aerug. Bonn; over 500 units/ml with Psdm. aerug. Walter; 0.8-4 units/ml with Staph. aureus 133; over 500 units/ml in assay [1]; over 500 units/ml in the assay on Klebsiella K 10; over 500 units/ml in the assay on Klebsiella 63. In addition, the MIC in the assay on E. coli A 261 is over 500 units/ml; against E. coli 183/58, 100-500 units/ml; against E. coli 14, 20-100 units/ml; in the assay with E. coli C 165 it was 100-500 units/ml; against Proteus vulg. 3400, over 500 units/ml; in the assay on Proteus vulg. 1017, over 500 units/ml.

As for `C=CCN(C(C)=O)C(=O)NC(C(=O)N[C@@H]1C(=O)N2[C@@H]1SC(C)(C)[C@@H]2C(=O)O)c1cccs1` (stereo partly drawn) [Example 17, Sodium D,L-α-(3-acetyl-3-allyl-ureido)-2-thienylmethylpenicillin], the MIC is 100-500 units/ml with Psdm. aerug. Bonn; 100-500 units/ml in the assay on Psdm. aerug. Walter; under 0.8 units/ml with Staph. aureus 133; 20-100 units/ml in assay [1]; 20-100 units/ml against Klebsiella K 10; 20-100 units/ml with Klebsiella 63. In addition, the MIC against E. coli A 261 was over 500 units/ml; against E. coli 183/58 it was 20-100 units/ml; in the assay with E. coli 14 it was 4-20 units/ml; against E. coli C 165 it was 20-100 units/ml; against Proteus vulg. 3400 it was 100-500 units/ml; in the assay on Proteus vulg. 1017 it was over 500 units/ml.

On to `COC(=O)N(C)C(=O)NC(C(=O)N[C@@H]1C(=O)N2[C@@H]1SC(C)(C)[C@@H]2C(=O)O)c1ccc(OC)cc1` (stereo partly drawn) [Example 18, Sodium D,L-α-(3-methoxycarbonyl-3-methyl-ureido)-4-methoxybenzylpenicillin], for which the MIC in the assay on Psdm. aerug. Bonn is given as 100-500 units/ml; in the assay with Psdm. aerug. Walter, 100-500 units/ml; with Staph. aureus 133 it was 0.8-4 units/ml; in [1] it was ~ 100 units/ml; in the assay with Klebsiella K 10 it was 20-100 units/ml; with Klebsiella 63 it was 20-100 units/ml. The MIC with E. coli A 261 is given as over 500 units/ml; in the assay with E. coli 183/58, 20-100 units/ml; in the assay with E. coli 14, 4-20 units/ml; against E. coli C 165, 20-100 units/ml; against Proteus vulg. 3400, 100-500 units/ml; in the assay with Proteus vulg. 1017, 100-500 units/ml.

Turning to `CN(C(=O)CCCCl)C(=O)N[C@@H](C(=O)N[C@@H]1C(=O)N2[C@@H]1SC(C)(C)[C@@H]2C(=O)O)c1ccccc1` [Example 24, Sodium D(-)-α-(3-γ-chlorobutyryl-3-methyl-ureido)-benzylpenicillin], the MIC against Psdm. aerug. Bonn is 100 units/ml; against Psdm. aerug. Walter, 100 units/ml; against Staph. aureus 133, ~ 1.6 units/ml; in assay [1], 200 units/ml; with Klebsiella K 10, 50 units/ml; against Klebsiella 63 it was 100 units/ml. In addition, the MIC with E. coli A 261 is over 400 units/ml; in the assay with E. coli 183/58, 25 units/ml; against E. coli 14 it was 6.3 units/ml; against E. coli C 165 it was 25 units/ml; in the assay with Proteus vulg. 3400, 50 units/ml; with Proteus vulg. 1017, 100 units/ml.

For `CN(C(=O)NC(C(=O)N[C@@H]1C(=O)N2[C@@H]1SC(C)(C)[C@@H]2C(=O)O)c1c(Cl)cccc1Cl)C(=O)c1ccccc1` (stereo partly drawn) [Example 31, Sodium α-(3-benzoyl-3-methyl-ureido)-2,6-dichlorobenzyl-penicillin], the MIC entry in the assay with Psdm. aerug. Bonn is “approx. 500 units/ml”; against Psdm. aerug. Walter, 100-500 units/ml; in the assay with Staph. aureus 133, 0.8-4 units/ml; in assay [1], over 500 units/ml; in the assay with Klebsiella K 10, 100-500 units/ml; with Klebsiella 63 it was 100-500 units/ml. Further, the MIC was over 500 units/ml against E. coli A 261; 20-100 units/ml with E. coli 183/58; 20-100 units/ml in the assay on E. coli 14; 100-500 units/ml in the assay with E. coli C 165; 100-500 units/ml in the assay with Proteus vulg. 3400; 100-500 units/ml with Proteus vulg. 1017.

Turning to `CN(C(=O)NC(C(=O)N[C@@H]1C(=O)N2[C@@H]1SC(C)(C)[C@@H]2C(=O)O)c1c(Cl)cccc1Cl)C(=O)c1ccccc1` (stereo partly drawn) [Example 32, Sodium α-(3-benzoyl-3-methyl-ureido)-2,6-dichlorobenzyl-penicillin], the MIC is reported as 100-500 units/ml in the assay with Psdm. aerug. Bonn; 100-500 units/ml against Psdm. aerug. Walter; about 0.8 units/ml with Staph. aureus 133; 100-500 units/ml in [1]; 100-500 units/ml with Klebsiella K 10; “approx. 100 units/ml” in the assay on Klebsiella 63. The MIC against E. coli A 261 is listed as over 500 units/ml; against E. coli 183/58, 20-100 units/ml; with E. coli 14, “approx. 20 units/ml”; with E. coli C 165, 20-100 units/ml; in the assay on Proteus vulg. 3400, 100-500 units/ml; in the assay with Proteus vulg. 1017, “approx. 100 units/ml”.

Turning to `CCOC(=O)N(C)C(=O)NC(C(=O)N[C@@H]1C(=O)N2[C@@H]1SC(C)(C)[C@@H]2C(=O)O)c1ccc(SC)cc1` (stereo partly drawn) [Example 35, Sodium α-(3-ethoxycarbonyl-3-methyl-ureido)-4-methylthiobenzylpenicillin], the MIC against Psdm. aerug. Bonn is given as 4-20 units/ml; in the assay on Psdm. aerug. Walter, “approx. 20 units/ml”; with Staph. aureus 133, under 0.8 units/ml; in assay [1], 20-100 units/ml; against Klebsiella K 10 it was 20-100 units/ml; in the assay with Klebsiella 63 it was 20-100 units/ml. Further, the MIC with E. coli A 261 was 100-500 units/ml; with E. coli 183/58, 4-20 units/ml; against E. coli 14, “approx. 4 units/ml”; in the assay with E. coli C 165 it was 20-100 units/ml; against Proteus vulg. 3400 it was 20-100 units/ml; against Proteus vulg. 1017 it was 20-100 units/ml.
